In ChEMBL document CHEMBL1201862, “PubChem BioAssay data set” (2004):
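Exposure lasted 48 hours, with cells grown in 96-well plates and compounds tested at five concentrations. At the GI50, growth is halved.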 The source made the active and inactive calls. Cut-off read from the data, not from the text of the source: active = GI50 up to about 1.1 µM and inactive = higher.

Experiments:
Experiment in all cases: NCI-60 cell line screen, 48 h
SK-MEL-5 = test system: SK-MEL-5
NCI-H23 = test system: NCI-H23
HOP-92 = test system: HOP-92
OVCAR-5 = test system: OVCAR-5
786-0 = test system: 786-0
MCF7 = test system: MCF7
SF-268 = test system: SF-268
NCI-H522 = test system: NCI-H522
CCRF-CEM = test system: CCRF-CEM
RPMI-8226 = test system: RPMI-8226
SW-620 = test system: SW-620
HCT-116 = test system: HCT-116
EKVX = test system: EKVX
NCI-H460 = test system: NCI-H460
SF-295 = test system: SF-295
IGROV-1 = test system: IGROV-1
SNB-75 = test system: SNB-75
UACC-257 = test system: UACC-257
BT-549 = test system: BT-549
NCI/ADR-RES = test system: NCI/ADR-RES

## COC(=O)c1onc(C2OC(C)(C)OC2C(O)COC(c2ccccc2)(c2ccccc2)c2ccccc2)c1C(=O)OC (stereo not given)
SK-MEL-5
  GI50: > 100 µM (inactive)
NCI-H23
  GI50: 72.3 µM (inactive)
HOP-92
  GI50: > 100 µM (inactive)
OVCAR-5
  GI50: > 100 µM (inactive)
786-0
  GI50: > 100 µM (inactive)
MCF7
  GI50: > 100 µM (inactive)
SF-268
  GI50: > 100 µM (inactive)
NCI-H522
  GI50: 65.8 µM (inactive)
CCRF-CEM
  GI50: > 100 µM (inactive)
RPMI-8226
  GI50: > 100 µM (inactive)
SW-620
  GI50: > 100 µM (inactive)
HCT-116
  GI50: > 100 µM (inactive)
EKVX
  GI50: 41.9 µM (inactive)

## Cc1cc(Cl)ccc1NC(=O)CCCC(=O)C1C/C(=N/O)CC/C1=N\O (stereo not given)
SK-MEL-5
  GI50: > 100 µM (inactive)
NCI-H23
  GI50: > 100 µM (inactive)
NCI-H460
  GI50: > 100 µM (inactive)
HOP-92
  GI50: > 100 µM (inactive)
SF-295
  GI50: > 100 µM (inactive)
OVCAR-5
  GI50: > 100 µM (inactive)
786-0
  GI50: > 100 µM (inactive)
IGROV-1
  GI50: > 100 µM (inactive)
SF-268
  GI50: > 100 µM (inactive)
SNB-75
  GI50: > 100 µM (inactive)
NCI-H522
  GI50: > 100 µM (inactive)
CCRF-CEM
  GI50: > 100 µM (inactive)
RPMI-8226
  GI50: > 100 µM (inactive)
SW-620
  GI50: > 100 µM (inactive)
HCT-116
  GI50: > 100 µM (inactive)
EKVX
  GI50: > 100 µM (inactive)
UACC-257
  GI50: > 100 µM (inactive)

## Cc1nn(C(=O)Cc2ccccc2)c2c1C(c1ccc(/C=C/c3ccccc3)cc1)SC(=N)N2 (stereo not given)
BT-549
  GI50: > 100 µM (inactive)
SK-MEL-5
  GI50: > 100 µM (inactive)
NCI-H23
  GI50: > 100 µM (inactive)
NCI-H460
  GI50: > 100 µM (inactive)
SF-295
  GI50: > 100 µM (inactive)
786-0
  GI50: > 100 µM (inactive)
IGROV-1
  GI50: > 100 µM (inactive)
MCF7
  GI50: > 100 µM (inactive)
SF-268
  GI50: > 100 µM (inactive)
SNB-75
  GI50: > 100 µM (inactive)
NCI-H522
  GI50: > 100 µM (inactive)
CCRF-CEM
  GI50: > 100 µM (inactive)
RPMI-8226
  GI50: > 100 µM (inactive)
SW-620
  GI50: > 100 µM (inactive)
HCT-116
  GI50: > 100 µM (inactive)
EKVX
  GI50: > 100 µM (inactive)
UACC-257
  GI50: > 100 µM (inactive)

## C1=C(c2ccccc2)Nc2nnnn2C1c1ccccc1 (stereo not given)
SK-MEL-5
  GI50: 40.7 µM (inactive)
NCI-H23
  GI50: > 100 µM (inactive)
NCI-H460
  GI50: 34 µM (inactive)
NCI/ADR-RES
  GI50: 44 µM (inactive)
SF-295
  GI50: 28.6 µM (inactive)
OVCAR-5
  GI50: 93.3 µM (inactive)
786-0
  GI50: 47.2 µM (inactive)
IGROV-1
  GI50: 83.4 µM (inactive)
MCF7
  GI50: 7.66 µM (inactive)
SF-268
  GI50: 32.7 µM (inactive)
NCI-H522
  GI50: 23.1 µM (inactive)
CCRF-CEM
  GI50: 0.0125 µM (active)
RPMI-8226
  GI50: < 0.01 µM (active)
SW-620
  GI50: 22.1 µM (inactive)
HCT-116
  GI50: 9.93 µM (inactive)
UACC-257
  GI50: 48.1 µM (inactive)

## C#CCOCn1ccc(=O)[nH]c1=O
SK-MEL-5
  GI50: > 100 µM (inactive)
NCI-H23
  GI50: > 100 µM (inactive)
NCI-H460
  GI50: > 100 µM (inactive)
NCI/ADR-RES
  GI50: > 100 µM (inactive)
SF-295
  GI50: > 100 µM (inactive)
OVCAR-5
  GI50: > 100 µM (inactive)
786-0
  GI50: > 100 µM (inactive)
IGROV-1
  GI50: > 100 µM (inactive)
MCF7
  GI50: > 100 µM (inactive)
SF-268
  GI50: > 100 µM (inactive)
SNB-75
  GI50: > 100 µM (inactive)
CCRF-CEM
  GI50: > 100 µM (inactive)
RPMI-8226
  GI50: > 100 µM (inactive)
SW-620
  GI50: > 100 µM (inactive)
HCT-116
  GI50: > 100 µM (inactive)
EKVX
  GI50: > 100 µM (inactive)
UACC-257
  GI50: > 100 µM (inactive)

## O=C(NCCCCCCCCCCCCNC(=O)c1cccc2ccccc12)c1cccc2ccccc12
SK-MEL-5
  GI50: > 100 µM (inactive)
NCI-H23
  GI50: > 64.1 µM (inactive)
NCI-H460
  GI50: > 90.8 µM (inactive)
HOP-92
  GI50: > 52.2 µM (inactive)
SF-295
  GI50: > 50.4 µM (inactive)
OVCAR-5
  GI50: > 100 µM (inactive)
786-0
  GI50: > 44.8 µM (inactive)
IGROV-1
  GI50: > 55.3 µM (inactive)
SF-268
  GI50: > 100 µM (inactive)
SNB-75
  GI50: 26.1 µM (inactive)
NCI-H522
  GI50: > 100 µM (inactive)
CCRF-CEM
  GI50: > 56.2 µM (inactive)
RPMI-8226
  GI50: > 100 µM (inactive)
SW-620
  GI50: > 67.5 µM (inactive)
HCT-116
  GI50: > 57.9 µM (inactive)
EKVX
  GI50: > 62.8 µM (inactive)
UACC-257
  GI50: > 100 µM (inactive)

## N#Cc1cccc2c1Nc1ccccc1S2
SK-MEL-5
  GI50: > 100 µM (inactive)
NCI-H23
  GI50: > 100 µM (inactive)
NCI-H460
  GI50: > 100 µM (inactive)
HOP-92
  GI50: 20.2 µM (inactive)
SF-295
  GI50: 35.2 µM (inactive)
OVCAR-5
  GI50: > 100 µM (inactive)
786-0
  GI50: 55.1 µM (inactive)
IGROV-1
  GI50: 48.9 µM (inactive)
SF-268
  GI50: 32.9 µM (inactive)
SNB-75
  GI50: 19.7 µM (inactive)
NCI-H522
  GI50: > 100 µM (inactive)
CCRF-CEM
  GI50: > 100 µM (inactive)
RPMI-8226
  GI50: > 100 µM (inactive)
SW-620
  GI50: > 100 µM (inactive)
HCT-116
  GI50: > 100 µM (inactive)
EKVX
  GI50: > 100 µM (inactive)
UACC-257
  GI50: > 100 µM (inactive)

## COC(=O)C(=C/c1ccc(OC)cc1)/C(C(=O)O)=C(/C)c1ccccc1
SK-MEL-5
  GI50: > 100 µM (inactive)
NCI-H23
  GI50: > 100 µM (inactive)
NCI-H460
  GI50: > 100 µM (inactive)
HOP-92
  GI50: > 100 µM (inactive)
SF-295
  GI50: > 100 µM (inactive)
OVCAR-5
  GI50: > 100 µM (inactive)
786-0
  GI50: > 100 µM (inactive)
IGROV-1
  GI50: > 100 µM (inactive)
SNB-75
  GI50: > 100 µM (inactive)
NCI-H522
  GI50: > 100 µM (inactive)
CCRF-CEM
  GI50: > 100 µM (inactive)
RPMI-8226
  GI50: > 100 µM (inactive)
SW-620
  GI50: > 100 µM (inactive)
HCT-116
  GI50: > 100 µM (inactive)
EKVX
  GI50: > 100 µM (inactive)
UACC-257
  GI50: > 100 µM (inactive)
